Counter-ions that a name gives are not always drawn.
Experiments:
Type in all cases: physicochemical
[1] = Heating under atmospheric pressure, then tested by XRD; conditions: 10 h
[2] = Exposure in controlled humidity cells, 7 days at room temperature, tested by XRD and KF titration; parameters: Water content: unit not given here; conditions: for Water content: KF titration
Experimental: 200 mg of Fexofenadine HCl Form XVI was spread as a thin layer on an open dish, and then put in controlled humidity cells of 0, 20, 40, 60 and 80% RH for 7 days at room temperature. The samples were tested by XRD and by KF titration.

[3] = Exposure of Form XX in controlled humidity cells, 9 days at 30 C, tested by XRD
[4] = Microscope observation of particle morphology; conditions: hydrochloride
Source text: The morphology of an active pharmaceutical substance plays an important role in drug performance, and has a profound impact on handling during milling processes and during drug product manufacturing. […].

| Water content ([2]; 0% RH) | Water content ([2]; 20% RH) | Crystal Form content by XRD ([2]; 20% RH, hydrochloride) | Water content ([2]; 40% RH) | Crystal Form content by XRD ([2]; 40% RH, hydrochloride) | Water content ([2]; 60% RH) | Crystal Form content by XRD ([2]; 60% RH, hydrochloride) | Crystal Form content by XRD ([2]; 80% RH) | Water content ([2]; 80% RH) | Compound | Crystal Form content by XRD ([2]; 0% RH, hydrochloride) | further results |
| --- | --- | --- | --- | --- | --- | --- | --- | --- | --- | --- | --- |
| 4.2 | 7.0 | XVI | 7.3 | XVI | 7.3 | XVI | XVI | 8.3 | CC(C)(C(=O)O)c1ccc(C(O)CCCN2CCC(C(O)(c3ccccc3)c3ccccc3)CC2)cc1 (centres unmarked) [Fexofenadine HCl Form XVI, fexofenadine hydrochloride] | mixture of Fexofenadine HCl Form XVI and Fexofenadine HCl Form XX | Resulted Form ([1]; 65 C.): XVI; Resulted Form ([1]; 80 C.): XVI + Amorphous; Resulted Form ([1]; 100 C., hydrochloride): mixture of Fexofenadine HCl Form XVI and amorphous Form; Resulted Form ([1]; 100 C., listed as XVI, hydrochloride): XVI + Amorphous |
|  |  |  |  |  |  |  |  |  | CC(C)(C(=O)O)c1ccc(C(O)CCCN2CCC(C(O)(c3ccccc3)c3ccccc3)CC2)cc1 (centres unmarked) [Fexofenadine HCl Form XX, fexofenadine hydrochloride] |  | Crystal Form content by XRD ([3]; 40% RH): XVI + XX; Water content ([3]; 40% RH): 4.9; Crystal Form content by XRD ([3]; 60% RH): XVI + XX; Water content ([3]; 60% RH): 5.2; Crystal Form content by XRD ([3]; 80% RH): XVI; Water content ([3]; 80% RH): 7.8; Particle morphology ([4]; listed as fexofenadine HCl form XX): small rod shape particles |
|  |  |  |  |  |  |  |  |  | CC(C)(C(=O)O)c1ccc(C(O)CCCN2CCC(C(O)(c3ccccc3)c3ccccc3)CC2)cc1 (centres unmarked) [Fexofenadine HCl form I, fexofenadine hydrochloride, reference compound] |  | Particle morphology ([4]; listed as fexofenadine HCl form I): needles morphology |
| 4.2 | 7.0 | 93% XVI, 7% Form XX | 7.3 | 96% XVI, 4% Form XX | 7.3 | 96% XVI, 4% Form XX | XVI | 8.3 | CC(C)(C(=O)O)c1ccc(C(O)CCCN2CCC(C(O)(c3ccccc3)c3ccccc3)CC2)cc1 (centres unmarked) [mixture of Fexofenadine HCl Form XVI and Fexofenadine HCl Fo] [fexofenadine hydrochloride] | 85% XVI, 15% Form XX |  |

Source: US20090082398A1 (Teva Pharmaceutical Industries Ltd., priority 2004, published 2009)
